In EP0774454A1, “Excitatory amino acid receptor antagonists” (ELI LILLY AND COMPANY, priority 1995, dated 1997):

System: metabotropic glutamate receptors
Experiment: displacement of 1S,3R-ACPD-sensitive [3H]glutamate binding to rat brain cell membranes (crude membranes of rat forebrain)
Description: The binding of [^3H]glutamate was conducted with crude membranes of rat forebrain as described by Schoepp and True, Neuroscience Lett., 145, 100-104 (1992) and Wright et al., J. Neurochemistry 63, 938-945, 1994.

IC50 [nM] | Compound | affinity for metabotropic glutamate receptors (result in words)
242 | NC1(C(=O)O)CC(Sc2ccccc2)C2C(C(=O)O)C21 (stereo not drawn) [Example 1, 1SR,2RS,4SR,5SR,6SR-2-Amino-4-(phenylthio)-bicyclo[3.1.0]hexane-2,6-dicarboxylic acid] | –
– | N[C@]1(C(=O)O)C[C@@H](SCc2ccco2)[C@@H]2[C@@H](C(=O)O)[C@@H]21 (racemic) [Example 8, 1SR,2RS,4RS,5SR,6SR-2-Amino-4-((2-furanylmethyl)thio)bicyclo[3.1.0]hexane-2,6-dicarboxylic acid] | essentially inactive
